Data on 6 compounds can be found in US20070167430A1, “Compounds useful in therapy” (priority 2004, published 2007).

Molecules are shown by their SMILES.

For the experiment, the target named is T1, human V1A receptor (Homo sapiens, UniProt P37288).
T1 construct: expressed in transfected cells
T1 sequence (P37288 whole entry): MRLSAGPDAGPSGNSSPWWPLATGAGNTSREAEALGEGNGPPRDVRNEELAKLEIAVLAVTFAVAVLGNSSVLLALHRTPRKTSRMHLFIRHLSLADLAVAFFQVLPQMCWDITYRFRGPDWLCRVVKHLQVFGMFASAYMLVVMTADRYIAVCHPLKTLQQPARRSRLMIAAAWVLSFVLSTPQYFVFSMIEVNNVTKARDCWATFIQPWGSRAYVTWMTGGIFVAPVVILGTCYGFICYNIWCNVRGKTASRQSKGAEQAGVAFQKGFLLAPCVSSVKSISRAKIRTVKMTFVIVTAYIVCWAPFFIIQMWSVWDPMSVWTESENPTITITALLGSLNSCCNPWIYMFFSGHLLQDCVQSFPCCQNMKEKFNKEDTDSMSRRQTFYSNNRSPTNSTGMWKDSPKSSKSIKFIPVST
Kind of experiment: V1A filter binding assay ([3H]-AVP binding to CHO-hV1A membranes). Particulars: screen 1.0, [3H]-AVP displacement. How it is done:
1.0 V1A Filter Binding Assay
Receptor binding assays were performed on cellular membranes prepared from CHO cells stably expressing the human V1A receptor, (CHO-hV1A). The CHO-hV1A cell line was kindly provided under a licensing agreement by Marc Thibonnier, Dept. of Medicine, Case Western Reserve University School of Medicine, Cleveland, Ohio. CHO-hV1A cells were routinely maintained at 37° C. in humidified atmosphere with 5% CO2 in DMEM/Hams F12 nutrient mix supplemented with 10% fetal bovine serum, 2 mM L-glutamine, 15 mM HEPES and 400 μg/ml G418. For bulk production of cell pellets, adherent CHO-hV1A cells were grown to confluency of 90-100% in 850 cm^2 roller bottles containing a medium of DMEM/Hams F12 Nutrient Mix supplemented with 10% fetal bovine serum, 2 mM L-glutamine and 15 mM HEPES. Confluent CHO-hV1A cells were washed with phosphate-buffered saline (PBS), harvested into ice cold PBS and centrifuged at 1,000 rpm. Cell pellets were stored at −80° C. until use. Cell pellets were thawed on ice and homogenised in membrane preparation buffer consisting of 50 mM Tris-HCl, pH 7.4, 5 mM MgCl2 and supplemented with a protease inhibitor cocktail, (Roche). The cell homogenate was centrifuged at 1000 rpm, 10 min, 4° C. and the supernatant was removed and stored on ice. The remaining pellet was homogenised and centrifuged as before. The supernatants were pooled and centrifuged at 25,000×g for 30 min at 4° C. The pellet was resuspended in freezing buffer consisting of 50 mM Tris-HCl, pH 7.4, 5 mM MgCl2 and 20% glycerol and stored in small aliquots at −80° C. until use. Protein concentration was determined using Bradford reagent and BSA as a standard.
Protein linearity followed by saturation binding studies were performed on each new batch of membrane. Membrane concentration was chosen that gave specific binding on the linear portion of the curve. Saturation binding studies were then performed using various concentrations of [^3H]-arginine vasopressin, [^3H]-AVP (0.05 nM-100 nM) and the Kd and Bmax determined.
Compounds were tested for their effects on [^3H]-AVP binding to CHO-hV1A membranes, (^3H-AVP; specific activity 65.5 Ci/mmol; NEN Life Sciences). Compounds were solubilised in dimethylsulfoxide (DMSO) and diluted to working concentration of 10% DMSO with assay buffer containing 50 mM Tris-HCL pH 7.4, 5 mM MgCl2 and 0.05% BSA. […] The binding reaction was initiated by the addition of 200 μl membrane and the plates were gently shaken for 60 min at room temperature. The reaction was terminated by rapid filtration using a Filtermate Cell Harvester (Packard Instruments) through a 96-well GF/B UniFilter Plate which had been presoaked in 0.5% polyethyleneimine to prevent peptide sticking. The filters were washed three times with 1 ml ice cold wash buffer containing 50 mM Tris-HCL pH 7.4 and 5 mM MgCl2. The plates were dried and 50 μl Microscint-0 (Packard instruments) was added to each well. The plates were sealed and counted on a TopCount Microplate Scintillation Counter (Packard Instruments). Non-specific binding (NSB) was determined using 1 μM unlabelled d(CH2)5Tyr(Me)AVP ([β-mercapto-β,β-cyclopentamethylenepropionyl,0-Me-Tyr^2,Arg^8]-vasopressin) (βMCPVP), (Sigma). The radioligand binding data was analysed using a four parameter logistic equation with the min forced to 0%. The slope was free fitted and fell between −0.75 and −1.25 for valid curves. Specific binding was calculated by subtracting the mean NSB cpm from the mean Total cpm. For test compounds the amount of ligand bound to the receptor was expressed as % bound=(sample cpm−mean NSB cpm)/specific binding cpm×100. The % bound was plotted against the concentration of test compound and a sigmoidal curve was fitted. The inhibitory dissociation constant (Ki) was calculated using the Cheng-Prusoff equation: Ki=IC50/(1+[L]/Kd) where [L] is the concentration of ligand present in the well and Kd is the dissociation constant of the radioligand obtained from Scatchard plot analysis. […]
`CN1Cc2cc(Cl)ccc2-n2c(nnc2C2CCN(C(=O)c3c[nH]c4ccccc34)CC2)C1` [Example 1, [4-(8-Chloro-5-methyl-5,6-dihydro-4H-2,3,5,10b-tetraaza-benzo[e]azulen-1-yl)-piperidin-1-yl]-(1H-indol-3-yl)-methanone]: the Ki (as a rule, the equilibrium dissociation constant of an inhibitor or competing ligand from its target) amounted to 73.8 nM.
In the case of `Cc1ccccc1CC(=O)N1CCC(c2nnc3n2-c2ccc(Cl)cc2CN(C)C3)CC1` [Example 2, 1-[4-(8-Chloro-5-methyl-5,6-dihydro-4H-2,3,5,10b-tetraaza-benzo[e]azulen-1-yl)-piperidin-1-yl]-2-o-tolyl-ethanone] it was 35 nM.
As for `CN1Cc2cc(Cl)ccc2-n2c(nnc2C2CCN(C(=O)C3(C)CCCCC3)CC2)C1` [Example 9, [4-(8-Chloro-5-methyl-5,6-dihydro-4H-2,3,5,10b-tetraaza-benzo[e]azulen-1-yl)-piperidin-1-yl]-(1-methyl-cyclohexyl)-methanone], the Ki turned out to be 59.9 nM.
In the case of `CN1Cc2cc(Cl)ccc2-n2c(nnc2C2CCN(C(=O)CC3CC3)CC2)C1` [Example 18, 1-[4-(8-Chloro-5-methyl-5,6-dihydro-4H-2,3,5,10b-tetraaza-benzo[e]azulen-1-yl)-piperidin-1-yl]-2-cyclopropyl-ethanone] it was 62.1 nM; in that of `CN1Cc2cc(Cl)ccc2-n2c(nnc2C2CCN(C(=O)c3cc4ccccc4[nH]3)CC2)C1` [Example 64, [4-(8-Chloro-5-methyl-5,6-dihydro-4H-2,3,5,10b-tetraaza-benzo[e]azulen-1-yl)-piperidin-1-yl]-(1H-indol-2-yl)-methanone], 34.7 nM.
Turning to `CN1Cc2cc(Cl)ccc2-n2c(nnc2C2CCN(C(=O)c3ccc4cc[nH]c4c3)CC2)C1` [Example 67, [4-(8-Chloro-5-methyl-5,6-dihydro-4H-2,3,5,10b-tetraaza-benzo[e]azulen-1-yl)-piperidin-1-yl]-(1H-indol-6-yl)-methanone], the Ki is 15.9 nM. This Ki lies about 2.2-fold lower than the previous one.
